According to article PMC12169104, “Towards the development of supramolecular self-associating amphiphiles as antibiofilm agents against Pseudomonas aeruginosa and Candida albicans biofilms” (Journal of Materials Chemistry. B, 2025):

Legend:
[1] = test system: polymicrobial biofilms of C. albicans (SC5314) and P. aeruginosa (PAO1); design: method as in PMID 38222503; settings: 0.16 mM, XTT assay, Fig. 8(c); cited from earlier work
[2] = cited from earlier work; for CAC / CAC (mM) / ST at CAC (mN m^−1): H2O:EtOH 19:1, approx. 291 K; for CAC / CAC (mM): surface tension measurements; for ST at CAC (mN/M): Table S1, same datum as Table 1
[3] = test system: P. aeruginosa (PAO1) biofilms; test: Biofilm inhibition, XTT metabolic assay; type: cell-based, Pseudomonas aeruginosa; settings: 2.56 mM, Fig. 7(a)
Protocol: Initially, the ability of SSAs 1–5 to inhibit biofilm formation was determined against P. aeruginosa (PAO1) biofilms through an XTT metabolic assay, used to determine the viability of cells within a biofilm (Section S4, ESI ^†).[57] […] We believe that this may indicate that SSAs which contain a squaramide residue may experience an additional barrier to eliciting an antimicrobial effect that is concentration dependent.
Section S4: Microbial materials and methods
General remarks: The reference strains, Pseudomonas aeruginosa PAO1 and Candida albicans SC5314,
were used in this study. The strains were stored at −80 °C in nutrient broth (NB) (1 gL–1 meat extract, 2
gL–1 yeast extract, 5 gL–1 peptone, and 8 gL–1 sodium chloride) supplemented with 25 and 15 % (v/v)
glycerol, respectively. Before each assay, the P. aeruginosa and C. albicans strains were cultured from
the frozen stock onto nutrient agar (NA) (1 gL –1 […], 2 gL–1 yeast extract, 5 gL–1 peptone, 8 gL–
1 sodium chloride, 20 gL–1 agar) and yeast malt extract (YM) agar (3 gL–1 malt extract, 3 gL–1 yeast […]
for 48 hours at 37 °C and OD measurement (at a wavelength of 595 nm, OD 595) (EZ Read 800 Research, […]
introduced to each well. The plates were incubated for 3 hours at 37 °C in the dark and the absorbance
measured at 492 nm using a microtiter plate reader (EZ Read 800 Research, Biochrom, England). […]
evaluated. […]

SMILES | antibiofilm activity [1] | CAC [2] [mM] | CAC (mM) [2] | ST at CAC (mN m^−1) [2] | ST at CAC (mN/M) [2] [mN/M] | Inhibition of biofilm formation [3]
O=S(=O)(O)CCCNC(=S)Nc1ccc(C(F)(F)F)cc1 [SSA 1] | 60–80% | 5.61 | 5.6[43] mM | 34[43] mN m^−1 | 33.59 | –
O=C(O)CNC(=S)Nc1ccc(C(F)(F)F)cc1 [SSA 2] | 60–80% | – | – | – | – | –
Cc1ccc2nc(-c3ccc(NC(=O)NCS(=O)(=O)O)cc3)sc2c1 [SSA 3] | – | 0.5 | 0.5[42] mM | 47[42] mN m^−1 | 46.5 | –
O=c1c(NCCCS(=O)(=O)O)c(Nc2ccc(C(F)(F)F)cc2)c1=O [SSA 4] | – | – | – | – | – | completely inhibit biofilm formation
O=C(O)CNc1c(Nc2ccc(C(F)(F)F)cc2)c(=O)c1=O [SSA 5] | – | – | – | – | – | completely inhibit biofilm formation
